In assay [1] the target is pseudo-kinase domain (JH2, amino-acids 536-812) of human V617F mutant JAK2 (Homo sapiens (Human), UniProt O60674, F794H/V617F/W659A/W777A). Put plainly: JAK2 LanthaScreen JH2-V617F Binding Assay. Conditions: JAK2 JH2-V617F 0.26 nM, 50 nM fluorescent tracer, 1 hour at 25° C.; read-out: JH2 BIND V617F IC50. Here is the method:
The assay was conducted in black 384-well polystyrene plates in a final reaction volume of 20 μL. […] Non-specific binding was accessed in the presence of 2 mM ATP. After incubation for 1 hour at 25° C., LanthaScreen signals were read on a PHERAstar FS plate reader (BMG LABTECH). Data was analyzed with IDBS XLfit and GraphPad Prism 5.0 software using a four parameter dose response curve to determine IC50 for each compound.

Assay [2] has as its target catalytic domain (JH1, amino acids 808-1132) of human JAK2 (Homo sapiens (Human), UniProt O60674). Put plainly: JAK2 HTRF Enzyme Activity Assay. The format is biochemical. Conditions: JAK2 0.015 nM, ATP (30 μM or 1 mM), 60 minutes at 25° C. Here is the method:
Example D. JAK2 HTRF Enzyme Activity Assay
JAK2 enzyme activity assays utilize catalytic domain (JH1, amino acids 808-1132) of human JAK2 expressed as N-terminal His-tagged protein in a baculovirus expression system (BPS Bioscience, Catalog #40450). The assays was conducted in black 384-well polystyrene plates in a final reaction volume of 20 μL. JAK2 (0.015 nM) was incubated with compounds (100 nL serially diluted in DMSO) in the presence of ATP (30 μM or 1 mM) and 500 nM Biotin-labeled […] (SEQ ID NO.: 1) peptide (BioSource International, custom synthesis) in assay buffer (50 mM Tris, pH=7.5, 10 mM MgCl2, 0.01% Brij-35, 0.1% BSA, 1 mM EGTA, 5% Glycerol and 5 mM DTT) for 60 minutes at 25° C. The reactions were stopped by the addition of 10 μL of detection buffer (50 mM Tris, pH 7.8, 0.5 mg/mL BSA, 150 mM NaCl), supplemented with EDTA, LANCE Eu-W1024 anti-phosphotyrosine (PY20), (PerkinElmer, Catalog #AD0067) and Streptavidin SureLight APC (PerkinElmer Catalog #CR130-100), for a final concentration of 15 mM, 1.5 nM and 75 nM, respectively. HTRF signals were read after 30 minutes incubation at room temperature on a PHERAstar FS plate reader (BMG LABTECH). Data was analyzed with IDBS XLfit and GraphPad Prism 5.0 software using a four parameter dose response curve to determine IC50 for each compound.

Assay [3] concerns the target catalytic domain (JH1, amino acids 826-1132) of human JAK2 (Homo sapiens (Human), UniProt O60674). Kind of assay: JAK2 LanthaScreen JH1 Binding Assay. As to conditions: JAK2 JH1 1.5 nM, 50 nM fluorescent tracer, 2 hours at 25° C.; read-out: JH1 BIND IC50. Here is the method:
Example A. JAK2 LanthaScreen JH1 Binding Assay
(§1) JAK2 JH1 binding assay utilizes catalytic domain (JH1, amino acids 826-1132) of human JAK2 expressed as N-terminal FLAG-tagged, biotinylated protein in a baculovirus expression system (Carna Biosciences, Product #08-445-20N). The assay was conducted in black 384-well polystyrene plates in a final reaction volume of 20 μL. JAK2 JH1 (1.5 nM) was incubated with compounds (100 nL serially diluted in DMSO) in the presence of 50 nM Fluorescent JAK2-JH1 Tracer and 0.5 nM Streptavidin-Tb cryptate (Cisbio Part #610SATLB) in assay buffer (50 mM Tris, pH=7.5, 10 mM MgCl2, 0.01% Brij-35, 0.1% BSA, 1 mM EGTA, 5% Glycerol and 5 mM DTT). Non-specific binding was accessed in the presence of 2 mM ATP. After incubation for 2 hours at 25° C., LanthaScreen signals were read on a PHERAstar FS plate reader (BMG LABTECH). Data was analyzed with IDBS XLfit and GraphPad Prism 5.0 software using a four parameter dose response curve to determine IC50 for each compound.

In assay [4] the target is pseudo-kinase domain (JH2, amino-acids 536-812) of human Wild Type JAK2 (Homo sapiens (Human), UniProt O60674, F794H/W659A/W777A). Kind of assay: JAK2 LanthaScreen JH2-WT Binding Assay. Conditions: JAK2 JH2-WT 0.145 nM, 50 nM fluorescent tracer, 1 hour at 25° C.; read-out: JH2 BIND WT IC50. Here is the method: Example B. JAK2 LanthaScreen JH2-WT Binding Assay
as §1, with “The” for “JAK2 JH1 binding assay utilizes catalytic domain (JH1, amino acids 826-1132) of human JAK2 expressed as N-terminal FLAG-tagged, biotinylated protein in a baculovirus expression system (Carna Biosciences, Product #08-445-20N). The”, “JH2-WT (0.145” for “JH1 (1.5”, “JAK2-JH2” for “JAK2-JH1”, “Tracer (MedChem Express Catalog #HY-102055)” for “Tracer”, “0.25” for “0.5”, “1 hour” for “2 hours”

pIC50: −log10 of the molar value. Where a name gives a salt, the structure may show the parent alone. Bounds are passed on as bounds.

Chain of pseudo-kinase domain (JH2, amino-acids 536-812) of human V617F mutant JAK2 (O60674 536-812 V617F/W659A/W777A/F794H): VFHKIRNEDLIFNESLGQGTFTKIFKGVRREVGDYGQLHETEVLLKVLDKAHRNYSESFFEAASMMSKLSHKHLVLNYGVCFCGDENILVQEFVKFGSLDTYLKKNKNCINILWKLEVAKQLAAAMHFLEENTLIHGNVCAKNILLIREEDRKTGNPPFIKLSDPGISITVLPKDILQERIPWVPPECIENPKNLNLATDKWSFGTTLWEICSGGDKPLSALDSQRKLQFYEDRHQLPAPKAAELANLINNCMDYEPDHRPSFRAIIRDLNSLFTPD
Chain of pseudo-kinase domain (JH2, amino-acids 536-812) of human Wild Type JAK2 (O60674 536-812 W659A/W777A/F794H): as the sequence (O60674 536-812 V617F/W659A/W777A/F794H) above, with F82V counted along it
Chain of catalytic domain (JH1, amino acids 826-1132) of human JAK2 (O60674 826-1132): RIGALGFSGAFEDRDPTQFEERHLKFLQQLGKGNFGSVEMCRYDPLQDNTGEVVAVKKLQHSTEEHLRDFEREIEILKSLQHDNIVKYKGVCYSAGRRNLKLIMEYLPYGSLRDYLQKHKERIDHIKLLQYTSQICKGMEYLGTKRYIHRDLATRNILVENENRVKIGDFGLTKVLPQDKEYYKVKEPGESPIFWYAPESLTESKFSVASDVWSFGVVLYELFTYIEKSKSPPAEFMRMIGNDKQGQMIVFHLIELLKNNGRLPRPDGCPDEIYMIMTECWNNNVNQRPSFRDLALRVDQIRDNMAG
Chain of catalytic domain (JH1, amino acids 808-1132) of human JAK2 (O60674 808-1132): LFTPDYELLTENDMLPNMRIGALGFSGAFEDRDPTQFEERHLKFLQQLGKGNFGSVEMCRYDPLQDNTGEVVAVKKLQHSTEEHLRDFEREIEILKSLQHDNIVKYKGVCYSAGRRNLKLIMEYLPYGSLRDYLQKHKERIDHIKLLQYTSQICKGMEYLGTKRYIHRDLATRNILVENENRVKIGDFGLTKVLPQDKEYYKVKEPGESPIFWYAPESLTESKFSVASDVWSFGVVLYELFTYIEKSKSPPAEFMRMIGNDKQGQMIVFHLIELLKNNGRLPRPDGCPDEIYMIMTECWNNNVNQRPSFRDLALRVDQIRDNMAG

With `CC1c2c(cnc3[nH]c(-c4ccc(CN5CCC(S(C)(=O)=O)CC5)cc4)cc23)N(C)C(=O)N1c1ccc(C(=O)O)cc1` (racemic) [Example 10, 4-(1,4-Dimethyl-8-(4-((4-(methylsulfonyl)piperidin-1-yl)methyl)phenyl)-3-oxo-1,3,4,7-tetrahydro-2H-pyrrolo[3′,2′:5,6]pyrido[3,4-d]pyrimidin-2-yl)benzoic Acid], the pIC50 in assay [1] is 6.30 to 7.00; in assay [2] it was 5.60 to 6.00; in assay [3] it was 5.60 to 6.00; in assay [4], ≥ 7.00.
For `CC(C(N)=O)n1cc(-c2ccc(-c3c(-c4ccc(CN5CCC(S(C)(=O)=O)CC5)cc4)[nH]c4ncc5c(c34)CN(C(C)(C)C)C(=O)N5C)cc2)cn1` (racemic) [Example 19, 2-(4-(4-(2-(tert-Butyl)-4-methyl-8-(4-((4-(methylsulfonyl)piperidin-1-yl)methyl)phenyl)-3-oxo-2,3,4,7-tetrahydro-1H-pyrrolo[3′,2′:5,6]pyrido[3,4-d]pyrimidin-9-yl)phenyl)-1H-pyrazol-1-yl)propanamide Trifluoroacetic Acid Salt], the negative-log IC50 (pIC50) in assay [1], in assay [2], in assay [3] and in assay [4] was ≥ 7.00 each time.
In the case of `CN1C(=O)NCc2c1cnc1[nH]c(-c3ccc(CN4CCC(S(C)(=O)=O)CC4)cc3)cc21` [Example 1, 4-Methyl-8-(4-((4-(methylsulfonyl)piperidin-1-yl)methyl)phenyl)-1,2,4,7-tetrahydro-3H-pyrrolo[3′,2′:5,6]pyrido[3,4-d]pyrimidin-3-one], the pIC50 in assay [1] was 6.00 to 6.30; in assay [2], ≥ 7.00; in assay [3] it was ≥ 7.00; in assay [4], 6.30 to 7.00.
Take `CN1C(=O)N(c2ccccc2)Cc2c1cnc1[nH]c(-c3ccc(CN4CCC(S(C)(=O)=O)CC4)cc3)cc21` [Example 2, 4-Methyl-8-(4-((4-(methylsulfonyl)piperidin-1-yl)methyl)phenyl)-2-phenyl-1,2,4,7-tetrahydro-3H-pyrrolo[3′,2′:5,6]pyrido[3,4-b]pyrimidin-3-one]: the pIC50 was 6.00 to 6.30 in assay [1], ≥ 7.00 in assay [2], ≥ 7.00 in assay [3] and 6.30 to 7.00 in assay [4].
As for `CN1C(=O)N(c2ccc(C(=O)O)cc2)Cc2c1cnc1[nH]c(-c3ccc(CN4CCC(S(C)(=O)=O)CC4)cc3)cc21` [Example 3, 4-(4-Methyl-8-(4-((4-(methylsulfonyl)piperidin-1-yl)methyl)phenyl)-3-oxo-1,3,4,7-tetrahydro-2H-pyrrolo[3′,2′:5,6]pyrido[3,4-d]pyrimidin-2-yl)benzoic Acid], the pIC50 is ≥ 7.00 in assay [1], 5.60 to 6.00 in assay [2], 5.60 to 6.00 in assay [3] and ≥ 7.00 in assay [4].
As for `CS(=O)(=O)C1CCN(Cc2ccc(-c3cc4c5c(cnc4[nH]3)NC(=O)N(C3CCCCC3)C5)cc2)CC1` [Example 5, 2-Cyclohexyl-8-(4-((4-(methylsulfonyl)piperidin-1-yl)methyl)phenyl)-1,2,4,7-tetrahydro-3H-pyrrolo[3′,2′:5,6]pyrido[3,4-d]pyrimidin-3-one], the pIC50 in assay [1] was 6.00 to 6.30; in assay [2], ≥ 7.00; in assay [3], ≥ 7.00; in assay [4], 6.30 to 7.00.
As to `CS(=O)(=O)C1CCN(Cc2ccc(-c3cc4c5c(cnc4[nH]3)NC(=O)N(C3CCN(S(N)(=O)=O)CC3)C5)cc2)CC1` [Example 7, 4-(8-(4-((4-(methylsulfonyl)piperidin-1-yl)methyl)phenyl)-3-oxo-1,3,4,7-tetrahydro-2H-pyrrolo[3′,2′:5,6]pyrido[3,4-d]pyrimidin-2-yl)piperidine-1-sulfonamide], the pIC50 is 5.60 to 6.00 in assay [1], ≥ 7.00 in assay [2], ≥ 7.00 in assay [3] and 6.00 to 6.30 in assay [4].
With `COCCNc1ccc(N2Cc3c(cnc4[nH]c(-c5ccc(CN6CCC(S(C)(=O)=O)CC6)cc5)cc34)N(C)C2=O)cc1` [Example 8, 2-(4-((2-Methoxyethyl)amino)phenyl)-4-methyl-8-(4-((4-(methylsulfonyl)piperidin-1-yl)methyl)phenyl)-1,2,4,7-tetrahydro-3H-pyrrolo[3′,2′:5,6]pyrido[3,4-d]pyrimidin-3-one], the pIC50 in assay [1] was 6.00 to 6.30; in assay [2] it was 6.30 to 7.00; in assay [3], 6.30 to 7.00; in assay [4], 6.30 to 7.00.
In the case of `CN1C(=O)N(c2ccc(NC(=O)CC#N)cc2)Cc2c1cnc1[nH]c(-c3ccc(CN4CCC(S(C)(=O)=O)CC4)cc3)cc21` [Example 9, 2-Cyano-N-(4-(4-methyl-8-(4-((4-(methylsulfonyl)piperidin-1-yl)methyl)phenyl)-3-oxo-1,3,4,7-tetrahydro-2H-pyrrolo[3′,2′:5,6]pyrido[3,4-d]pyrimidin-2-yl)phenyl)acetamide], the pIC50 in assay [1], in assay [2], in assay [3] and in assay [4] was 6.30 to 7.00 in each case.
In the case of `COc1ccc(-c2c(-c3ccc(CN4CCC(S(C)(=O)=O)CC4)cc3)[nH]c3ncc4c(c23)CN(c2ccc(C(=O)Nc3cccnc3)cc2)C(=O)N4C)cc1` [Example 11, 4-(9-(4-Methoxyphenyl)-4-methyl-8-(4-((4-(methylsulfonyl)piperidin-1-yl)methyl)phenyl)-3-oxo-1,3,4,7-tetrahydro-2H-pyrrolo[3′,2′:5,6]pyrido[3,4-d]pyrimidin-2-yl)-N-(pyridin-3-yl)benzamide, Bistrifluoroacetic Acid Salt], the pIC50 in assay [1] was ≥ 7.00; in assay [2], < 5.60; in assay [3] it was < 5.60; in assay [4], ≥ 7.00.
For the molecule `COc1ccc(-c2c(-c3ccc(CN4CCC(S(C)(=O)=O)CC4)cc3)[nH]c3ncc4c(c23)CN(c2ccc(C(=O)NCC(=O)NNCc3ccccc3)cc2)C(=O)N4C)cc1` [Example 13, N-(2-(2-Benzylhydrazineyl)-2-oxoethyl)-4-(9-(4-methoxyphenyl)-4-methyl-8-(4-((4-(methylsulfonyl)piperidin-1-yl)methyl)phenyl)-3-oxo-1,3,4,7-tetrahydro-2H-pyrrolo[3′,2′: 5,6]pyrido[3,4-d]pyrimidin-2-yl)benzamide, TFA], the pIC50 in assay [2] and in assay [3] was 5.60 to 6.00 in each case.

The values are drawn from patent US11661422B2, “Tricyclic urea compounds as JAK2 V617F inhibitors” (Incyte Corporation, priority 2020, dated 2023).
